# Measurements reported in the supplement of paper PMC11451515.
# System: P12-Ichikawa
# Assay: cell viability relative to DMSO control; higher = less cytotoxic
# Conditions: 48 h
# How it was run: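 Leukemia cells (NOMO1 or SEM, 500 cells/well; P12-Ichikawa, 1000 cells/well) were seeded in 5 μl in 1536-well plates after at least four passages of adaptation to each medium. They received library compounds in DMSO by pin dosing, 11 threefold points from 47 μM to 0.79 nM. Luminescence with CellTiter-Glo One was read after 48 h at 37°C. Viability is stated per plate relative to DMSO wells, with cell-free wells as background.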
# [1] = HPLM + 10% dialyzed FBS, 0.000781 µM
# [2] = HPLM + 10% dialyzed FBS, 0.00234 µM
# [3] = HPLM + 10% dialyzed FBS, 0.00702 µM
# [4] = HPLM + 10% dialyzed FBS, 0.0211 µM
# [5] = HPLM + 10% dialyzed FBS, 0.0632 µM
# [6] = HPLM + 10% dialyzed FBS, 0.19 µM
# [7] = HPLM + 10% dialyzed FBS, 0.569 µM
# [8] = HPLM + 10% dialyzed FBS, 1.71 µM
# [9] = HPLM + 10% dialyzed FBS, 5.12 µM
# [10] = HPLM + 10% dialyzed FBS, 15.4 µM
# [11] = HPLM + 10% dialyzed FBS, 46.1 µM
# [12] = RPMI 5 mM glucose + 10% FBS, 0.000781 µM
# [13] = RPMI 5 mM glucose + 10% FBS, 0.00234 µM
# [14] = RPMI 5 mM glucose + 10% FBS, 0.00702 µM
# [15] = RPMI 5 mM glucose + 10% FBS, 0.0211 µM
# [16] = RPMI 5 mM glucose + 10% FBS, 0.0632 µM
# [17] = RPMI 5 mM glucose + 10% FBS, 0.19 µM
# [18] = RPMI 5 mM glucose + 10% FBS, 0.569 µM
# [19] = RPMI 5 mM glucose + 10% FBS, 1.71 µM
# [20] = RPMI 5 mM glucose + 10% FBS, 5.12 µM
# [21] = RPMI 5 mM glucose + 10% FBS, 15.4 µM
# [22] = RPMI 5 mM glucose + 10% FBS, 46.1 µM
# [23] = RPMI 5 mM glucose + 10% dialyzed FBS, 0.000781 µM
# [24] = RPMI 5 mM glucose + 10% dialyzed FBS, 0.00234 µM
# [25] = RPMI 5 mM glucose + 10% dialyzed FBS, 0.00702 µM
# [26] = RPMI 5 mM glucose + 10% dialyzed FBS, 0.0211 µM
# [27] = RPMI 5 mM glucose + 10% dialyzed FBS, 0.0632 µM
# [28] = RPMI 5 mM glucose + 10% dialyzed FBS, 0.19 µM
# [29] = RPMI 5 mM glucose + 10% dialyzed FBS, 0.569 µM
# [30] = RPMI 5 mM glucose + 10% dialyzed FBS, 1.71 µM
# [31] = RPMI 5 mM glucose + 10% dialyzed FBS, 5.12 µM
# [32] = RPMI 5 mM glucose + 10% dialyzed FBS, 15.4 µM
# [33] = RPMI 5 mM glucose + 10% dialyzed FBS, 46.1 µM
Compound,cell viability [1],cell viability [2],cell viability [3],cell viability [4],cell viability [5],cell viability [6],cell viability [7],cell viability [8],cell viability [9],cell viability [10],cell viability [11],cell viability [12],cell viability [13],cell viability [14],cell viability [15],cell viability [16],cell viability [17],cell viability [18],cell viability [19],cell viability [20],cell viability [21],cell viability [22],cell viability [23],cell viability [24],cell viability [25],cell viability [26],cell viability [27],cell viability [28],cell viability [29],cell viability [30],cell viability [31],cell viability [32],cell viability [33]
CC(C)[C@H](C(=O)Nc1ccc(C(=O)NO)cc1)c1ccccc1,117%,120%,121%,129%,125%,125%,118%,87.9%,7.68%,5.55%,6.05%,–,–,–,–,–,–,–,–,–,–,–,–,–,–,–,–,–,–,–,–,–,–
COc1ccc(-n2c(C)c([N+](=O)[O-])c3ccc(O)cc32)cc1,–,–,–,–,–,–,–,–,–,–,–,127%,118%,118%,126%,118%,123%,122%,121%,115%,111%,105%,119%,121%,120%,122%,114%,118%,121%,122%,106%,112%,102%
C[C@H](NC(=O)[C@@H](O)c1cc(F)cc(F)c1)C(=O)N[C@@H]1C(=O)N(C)c2ccccc2-c2ccccc21,118%,116%,111%,119%,106%,108%,105%,101%,96.8%,102%,90.1%,114%,116%,119%,115%,114%,111%,102%,90.5%,99.8%,101%,94.3%,114%,110%,109%,109%,106%,101%,99.6%,106%,95.8%,94.3%,78.5%
CC(C)(C)[C@]1(O)C[C@@H]2OC(=O)C[C@@]23C(=O)O[C@@H]2OC(=O)[C@H](O)C213 (stereo partly specified),121%,127%,121%,126%,118%,112%,118%,108%,109%,114%,106%,128%,121%,113%,136%,118%,122%,118%,105%,116%,108%,113%,120%,129%,124%,130%,119%,116%,119%,105%,118%,116%,112%
Nc1nccc(-c2ccc3noc(-c4ccc(Cl)cc4)c3c2)n1,124%,124%,131%,129%,120%,124%,128%,120%,122%,115%,118%,–,–,–,–,–,–,–,–,–,–,–,116%,119%,122%,123%,117%,115%,110%,123%,115%,105%,110%
Nc1cc(N2CCCCC2)nc(N)[n+]1[O-],114%,125%,122%,118%,120%,127%,131%,125%,122%,119%,122%,125%,128%,121%,134%,127%,123%,131%,127%,131%,134%,127%,113%,124%,111%,125%,121%,114%,125%,129%,121%,113%,117%
CC(=O)OCC(=O)[C@@]1(O)CC[C@H]2[C@@H]3CCC/4=C/C(=O)/C=C\[C@]4(C)[C@H]3[C@@H](O)C[C@]12C,120%,128%,123%,126%,102%,85.3%,95.7%,72.1%,66.4%,118%,109%,–,–,–,–,–,–,–,–,–,–,–,117%,118%,121%,130%,92.5%,77.4%,100%,50.8%,43.8%,109%,102%
COc1cc2c(cc1O)CCC1C2CC[C@@]2(C)C1CC[C@@H]2O (stereo partly specified),116%,120%,118%,89.9%,120%,112%,114%,65.1%,31.8%,17.9%,15.8%,–,–,–,–,–,–,–,–,–,–,–,120%,125%,115%,114%,126%,120%,115%,96.3%,47%,27.8%,26.2%
C=C1CCC2[C@](C)(CO)C(O)CC[C@]2(C)C1C/C=C1/C(=O)OCC1O (stereo partly specified),122%,124%,122%,114%,121%,117%,104%,103%,106%,114%,115%,115%,112%,118%,106%,114%,110%,108%,109%,107%,98.6%,107%,120%,115%,124%,115%,116%,111%,109%,103%,98.7%,110%,106%
